# Measurements reported in patent US20230183259A1, “Crystal Form Of Thiofuran Pyridazine Compound, Preparation Method Therefor And Application Thereof” (ZHEJIANG MEDICINE CO., LTD. XINCHANG PHARMACEUTICAL FACTORY, priority 2020, published 2023).
# Assays:
# [1] = acceleration test (stability); type: physicochemical; settings: 40° C.±2° C., relative humidity 75%±5%
# Protocol: (§1) Stability tests were performed on the samples of Examples 1, 2, 3, 4 and 5. […] Please refer to the results of the acceleration test (40° C.±2° C., relative humidity 75%±5%) of Table 1 and the results of the long-term stability test (25° C.±2° C., relative humidity 60%±10%) of Table 2.
# long-term stability test = type: physicochemical; settings: 25° C.±2° C., relative humidity 60%±10%
# Protocol: as §1
substance,measurement,setting,value
"(S)-2-(4-fluorophenyl)-4-(piperidine-3-aminomethyl)thieno[2,3-d]pyridazine-7-carboxamide hydrochloride [Example 110601-1]",(%) Impurity B (%),[1]; 0 month,0.00%
same,Crystal form,[1]; 0 month,unchanged
same,appearance,[1]; 0 month,yellow crystalline powder
same,Enantiomer (%),"[1]; 0 month, hydrochloride",0.11%
same,Impurity A (%),"[1]; 0 month, hydrochloride",0.36%
same,Impurity C (%),"[1]; 0 month, hydrochloride",0.03%
same,Loss on drying (%),"[1]; 0 month, hydrochloride",7.1%
same,Single largest impurity (%),"[1]; 0 month, hydrochloride",0.02%
same,Total relevant substances (%),"[1]; 0 month, hydrochloride",0.47%
same,content(%),"[1]; 0 month, hydrochloride",99.1%
same,Crystal form,[1]; 1 month,unchanged
same,Impurity C (%),[1]; 1 month,0.02%
same,appearance,[1]; 1 month,yellow crystalline powder
same,(%) Impurity B (%),"[1]; 1 month, hydrochloride",0.00%
same,Enantiomer (%),"[1]; 1 month, hydrochloride",0.13%
same,Impurity A (%),"[1]; 1 month, hydrochloride",0.34%
same,Loss on drying (%),"[1]; 1 month, hydrochloride",7.1%
same,Single largest impurity (%),"[1]; 1 month, hydrochloride",0.02%
same,Total relevant substances (%),"[1]; 1 month, hydrochloride",0.46%
same,content(%),"[1]; 1 month, hydrochloride",100.5%
same,Crystal form,[1]; 2 months,unchanged
same,appearance,[1]; 2 months,yellow crystalline powder
same,(%) Impurity B (%),"[1]; 2 months, hydrochloride",0.00%
same,Enantiomer (%),"[1]; 2 months, hydrochloride",0.11%
same,Impurity A (%),"[1]; 2 months, hydrochloride",0.35%
same,Impurity C (%),"[1]; 2 months, hydrochloride",0.02%
same,Loss on drying (%),"[1]; 2 months, hydrochloride",7.1%
same,Single largest impurity (%),"[1]; 2 months, hydrochloride",0.02%
same,Total relevant substances (%),"[1]; 2 months, hydrochloride",0.44%
same,content(%),"[1]; 2 months, hydrochloride",100.6%
same,(%) Impurity B (%),[1]; 3 months,0.00%
same,Crystal form,[1]; 3 months,unchanged
same,Impurity C (%),[1]; 3 months,0.02%
same,appearance,[1]; 3 months,yellow crystalline powder
same,Enantiomer (%),"[1]; 3 months, hydrochloride",0.1%
same,Impurity A (%),"[1]; 3 months, hydrochloride",0.33%
same,Loss on drying (%),"[1]; 3 months, hydrochloride",7.0%
same,Single largest impurity (%),"[1]; 3 months, hydrochloride",0.03%
same,Total relevant substances (%),"[1]; 3 months, hydrochloride",0.44%
same,content(%),"[1]; 3 months, hydrochloride",99.6%
same,(%) Impurity B (%),[1]; 6 months,0.00%
same,Crystal form,[1]; 6 months,unchanged
same,Impurity C (%),[1]; 6 months,0.02%
same,appearance,[1]; 6 months,yellow crystalline powder
same,Enantiomer (%),"[1]; 6 months, hydrochloride",0.08%
same,Impurity A (%),"[1]; 6 months, hydrochloride",0.30%
same,Loss on drying (%),"[1]; 6 months, hydrochloride",7.0%
same,Single largest impurity (%),"[1]; 6 months, hydrochloride",0.03%
same,Total relevant substances (%),"[1]; 6 months, hydrochloride",0.41%
same,content(%),"[1]; 6 months, hydrochloride",99.6%
same,Crystal form,long-term stability test; 0 month,unchanged
same,ImpurityB(%),long-term stability test; 0 month,0.00%
same,Content (calculated by dried product )(%),"long-term stability test; 0 month, hydrochloride",99.1%
same,Enantiomers (%),"long-term stability test; 0 month, hydrochloride",0.11%
same,ImpurityA(%),"long-term stability test; 0 month, hydrochloride",0.36%
same,ImpurityC(%),"long-term stability test; 0 month, hydrochloride",0.03%
same,Loss on drying (%),"long-term stability test; 0 month, hydrochloride",7.1%
same,Single largest impurity (%),"long-term stability test; 0 month, hydrochloride",0.02%
same,Total relevant substances (%),"long-term stability test; 0 month, hydrochloride",0.47%
same,appearance,"long-term stability test; 0 month, hydrochloride",yellow crystalline powder
same,Crystal form,long-term stability test; 3 months,unchanged
same,ImpurityB(%),long-term stability test; 3 months,0.00%
same,ImpurityC(%),long-term stability test; 3 months,0.02%
same,Content (calculated by dried product )(%),"long-term stability test; 3 months, hydrochloride",99.9%
same,Enantiomers (%),"long-term stability test; 3 months, hydrochloride",0.11%
same,ImpurityA(%),"long-term stability test; 3 months, hydrochloride",0.35%
same,Loss on drying (%),"long-term stability test; 3 months, hydrochloride",7.0%
same,Single largest impurity (%),"long-term stability test; 3 months, hydrochloride",0.02%
same,Total relevant substances (%),"long-term stability test; 3 months, hydrochloride",0.45%
same,appearance,"long-term stability test; 3 months, hydrochloride",yellow crystalline powder
same,Crystal form,long-term stability test; 6 months,unchanged
same,ImpurityB(%),long-term stability test; 6 months,0.00%
same,Content (calculated by dried product )(%),"long-term stability test; 6 months, hydrochloride",99.8%
same,Enantiomers (%),"long-term stability test; 6 months, hydrochloride",0.08%
same,ImpurityA(%),"long-term stability test; 6 months, hydrochloride",0.34%
same,ImpurityC(%),"long-term stability test; 6 months, hydrochloride",0.03%
same,Loss on drying (%),"long-term stability test; 6 months, hydrochloride",7.0%
same,Single largest impurity (%),"long-term stability test; 6 months, hydrochloride",0.02%
same,Total relevant substances (%),"long-term stability test; 6 months, hydrochloride",0.41%
same,appearance,"long-term stability test; 6 months, hydrochloride",yellow crystalline powder
same,Crystal form,long-term stability test; 9 months,unchanged
same,ImpurityC(%),long-term stability test; 9 months,0.02%
same,Content (calculated by dried product )(%),"long-term stability test; 9 months, hydrochloride",99.8%
same,Enantiomers (%),"long-term stability test; 9 months, hydrochloride",0.08%
same,ImpurityA(%),"long-term stability test; 9 months, hydrochloride",0.34%
same,ImpurityB(%),"long-term stability test; 9 months, hydrochloride",0.02%
same,Loss on drying (%),"long-term stability test; 9 months, hydrochloride",7.0%
same,Single largest impurity (%),"long-term stability test; 9 months, hydrochloride",0.03%
same,Total relevant substances (%),"long-term stability test; 9 months, hydrochloride",0.47%
same,appearance,"long-term stability test; 9 months, hydrochloride",yellow crystalline powder
same,Crystal form,long-term stability test; 12 months,unchanged
same,ImpurityB(%),long-term stability test; 12 months,0.01%
same,Single largest impurity (%),long-term stability test; 12 months,0.02%
same,Content (calculated by dried product )(%),"long-term stability test; 12 months, hydrochloride",99.4%
same,Enantiomers (%),"long-term stability test; 12 months, hydrochloride",0.1%
same,ImpurityA(%),"long-term stability test; 12 months, hydrochloride",0.34%
same,ImpurityC(%),"long-term stability test; 12 months, hydrochloride",0.02%
same,Loss on drying (%),"long-term stability test; 12 months, hydrochloride",7.1%
same,Total relevant substances (%),"long-term stability test; 12 months, hydrochloride",0.43%
same,appearance,"long-term stability test; 12 months, hydrochloride",yellow crystalline powder
same,Crystal form,long-term stability test; 18 months,unchanged
same,ImpurityB(%),long-term stability test; 18 months,0.00%
same,Single largest impurity (%),long-term stability test; 18 months,0.02%
same,Content (calculated by dried product )(%),"long-term stability test; 18 months, hydrochloride",99.5%
same,Enantiomers (%),"long-term stability test; 18 months, hydrochloride",0.07%
same,ImpurityA(%),"long-term stability test; 18 months, hydrochloride",0.37%
same,ImpurityC(%),"long-term stability test; 18 months, hydrochloride",0.04%
same,Loss on drying (%),"long-term stability test; 18 months, hydrochloride",7.0%
same,Total relevant substances (%),"long-term stability test; 18 months, hydrochloride",0.45%
same,appearance,"long-term stability test; 18 months, hydrochloride",yellow crystalline powder
same,Crystal form,long-term stability test; 24 months,unchanged
same,Enantiomers (%),long-term stability test; 24 months,0.08%
same,ImpurityB(%),long-term stability test; 24 months,0.00%
same,ImpurityC(%),long-term stability test; 24 months,0.02%
same,Single largest impurity (%),long-term stability test; 24 months,0.02%
same,Content (calculated by dried product )(%),"long-term stability test; 24 months, hydrochloride",98.3%
same,ImpurityA(%),"long-term stability test; 24 months, hydrochloride",0.37%
same,Loss on drying (%),"long-term stability test; 24 months, hydrochloride",7.4%
same,Total relevant substances (%),"long-term stability test; 24 months, hydrochloride",0.43%
same,appearance,"long-term stability test; 24 months, hydrochloride",yellow crystalline powder
same,Crystal form,long-term stability test; 36 months,unchanged
same,ImpurityC(%),long-term stability test; 36 months,0.02%
same,Single largest impurity (%),long-term stability test; 36 months,0.02%
same,Content (calculated by dried product )(%),"long-term stability test; 36 months, hydrochloride",99.9%
same,Enantiomers (%),"long-term stability test; 36 months, hydrochloride",0.07%
same,ImpurityA(%),"long-term stability test; 36 months, hydrochloride",0.38%
same,ImpurityB(%),"long-term stability test; 36 months, hydrochloride",0.02%
same,Loss on drying (%),"long-term stability test; 36 months, hydrochloride",7.3%
same,Total relevant substances (%),"long-term stability test; 36 months, hydrochloride",0.50%
same,appearance,"long-term stability test; 36 months, hydrochloride",yellow crystalline powder
